Data from patent publication EP4722213A1, “NITROGEN-CONTAINING FUNCTIONAL GROUP-SUBSTITUTED PYRIDAZINOPYRIDONE DERIVATIVE AND USE THEREOF” (Sichuan Huiyu Pharmaceutical Co., Ltd., priority 2023, dated 2024).
Counter-ions that a name gives are not always drawn.

Biological target: T1, SOS1 (Homo sapiens, UniProt Q07889)
T1 sequence (Q07889 1-1333): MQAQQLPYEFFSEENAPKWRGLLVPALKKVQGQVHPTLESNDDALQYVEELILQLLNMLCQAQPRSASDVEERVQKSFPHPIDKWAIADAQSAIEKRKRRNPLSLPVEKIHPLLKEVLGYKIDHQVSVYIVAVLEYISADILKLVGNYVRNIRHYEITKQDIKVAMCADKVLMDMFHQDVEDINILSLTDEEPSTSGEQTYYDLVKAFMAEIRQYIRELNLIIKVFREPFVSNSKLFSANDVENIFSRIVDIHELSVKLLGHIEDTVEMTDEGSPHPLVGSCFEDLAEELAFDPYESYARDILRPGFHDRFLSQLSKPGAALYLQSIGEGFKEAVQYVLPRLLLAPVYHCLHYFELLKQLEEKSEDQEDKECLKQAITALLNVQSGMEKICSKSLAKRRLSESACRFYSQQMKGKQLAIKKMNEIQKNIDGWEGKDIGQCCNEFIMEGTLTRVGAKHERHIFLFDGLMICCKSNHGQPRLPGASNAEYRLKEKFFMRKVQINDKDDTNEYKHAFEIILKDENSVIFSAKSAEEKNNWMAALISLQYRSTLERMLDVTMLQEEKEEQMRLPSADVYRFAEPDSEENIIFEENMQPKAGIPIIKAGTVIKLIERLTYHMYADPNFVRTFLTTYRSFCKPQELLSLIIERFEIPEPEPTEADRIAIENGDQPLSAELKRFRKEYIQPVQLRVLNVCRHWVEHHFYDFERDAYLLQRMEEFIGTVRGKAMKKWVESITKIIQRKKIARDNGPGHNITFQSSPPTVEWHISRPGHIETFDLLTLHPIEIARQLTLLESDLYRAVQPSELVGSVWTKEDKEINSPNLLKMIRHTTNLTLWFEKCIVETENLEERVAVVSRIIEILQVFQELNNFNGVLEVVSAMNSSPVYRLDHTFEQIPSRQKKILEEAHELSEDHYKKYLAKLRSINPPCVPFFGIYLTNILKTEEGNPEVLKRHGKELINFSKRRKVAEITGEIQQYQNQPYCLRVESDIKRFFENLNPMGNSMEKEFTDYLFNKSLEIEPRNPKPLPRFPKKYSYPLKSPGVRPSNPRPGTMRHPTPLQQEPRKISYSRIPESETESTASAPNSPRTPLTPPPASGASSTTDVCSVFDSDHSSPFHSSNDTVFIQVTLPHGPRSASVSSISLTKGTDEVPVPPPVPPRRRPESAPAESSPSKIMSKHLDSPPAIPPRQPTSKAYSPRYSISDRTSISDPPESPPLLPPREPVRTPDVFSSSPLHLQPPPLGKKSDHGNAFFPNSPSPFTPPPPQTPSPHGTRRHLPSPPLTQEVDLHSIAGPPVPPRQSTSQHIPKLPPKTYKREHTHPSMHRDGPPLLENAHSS
Experiment: biochemical

| Structure (SMILES) | IC50 |
| --- | --- |
| C[C@@H](Nc1nnc(N2CCC3(CC2)CC3(F)F)c2cc(=O)n(C3(C)CC3)cc12)c1cccc(C(F)F)c1F [Example 186, (R)-1-(1,1-difluoro-6-azaspiro[2.5]octan-6-yl)-4-((1-(3-(difluoromethyl)-2-fluorophenyl)ethyl)amino)-6-(1-methylcyclopropyl) pyrido[3,4-d]pyridazin-7(6H)-one] | 31.1 nM |
| Cc1c(C#N)cccc1[C@@H](C)Nc1nnc(N2CCN(C(C)C)CC2)c2cc(=O)n(C3CCN(C)CC3)cc12 [Example 132, (R)-3-(1-((1-(4-isopropylpiperazin-1-yl)-6-(1-methylpiperidin-4-yl)-7-oxo-6,7-dihydropyrido[3,4-d]pyridazin-4-yl)amino)ethyl)-2-methylbenzonitrile] | 16.6 nM |
| CCN1CCN(c2nnc(N[C@H](C)c3cc(N)cc(C)c3F)c3cn(C4CC4)c(=O)cc23)CC1 [Example 144, (R)-4-((1-(5-amino-2-fluoro-3-methylphenyl)ethyl)amino)-6-cyclopropyl-1-(4-ethylpiperazin-1-yl)pyrido[3,4-d]pyridazin-7(6H)-one formate] | 6.7 nM |
| C[C@@H](Nc1nnc(N2CC3(CCOCC3)C2)c2cc(=O)n(C3(C)CC3)cc12)c1cccc(C(F)F)c1F [Example 182, (R)-4-((1-(3-(difluoromethyl)-2-fluorophenyl)ethyl)amino)-6-(1-methylcyclopropyl)-1-(7-oxa-2-azaspiro[3.5]nonan-2-yl)pyrido[3,4-d]pyridazin-7(6H)-one] | 5 nM |
| C[C@@H](Nc1nnc(N2CCN(C)CC2)c2cc(=O)n(C3(C)CC3)cc12)c1cccc(C(F)(F)CO)c1 [Example 226, (R)-4-((1-(3-(1,1-difluoro-2-hydroxyethyl)phenyl)ethyl)amino)-6-(1-methylcyclopropyl)-1-(4-methylpiperazin-1-yl)pyrido[3,4-d]pyridazin-7(6H)-one] | 4.3 nM |
| C[C@@H](Nc1nnc(N2CCN(C)C(=O)C2)c2cc(=O)n(C3(C)CC3)cc12)c1cccc(C(F)(F)F)c1F [Example 174, (R)-4-((1-(2-fluoro-3-(trifluoromethyl)phenyl)ethyl)amino)-1-(4-methyl-3-oxopiperazin-1-yl)-6-(1-methylcyclopropyl) pyrido[3,4-d]pyridazin-7(6H)-one] | 20.2 nM |
| Cc1c([C@@H](C)Nc2nnc(N(C)C)c3cc(=O)n(C4CC4)cc23)cccc1C(F)(F)F [Example 51, (R)-6-cyclopropyl-1-(dimethylamino)-4-((1-(2-methyl-3-(trifluoromethyl)phenyl)ethyl)amino)pyr ido[3,4-d]pyridazin-7(6H)-one] | 11.8 nM |
| C[C@@H](Nc1nnc(N2CCN(C)CC2)c2cc(=O)n(C3(C)CC3)cc12)c1cccc2c1CCC2(F)F [Example 208, (R)-4-((1-(1,1-difluoro-2,3-dihydro-1H-inden-4-yl)ethyl)amino)-6-(1-methylcyclopropyl)-1-(4-methylpiperazin-1-yl)pyrido[3,4-d]pyridazin-7(6H)-one] | 4.5 nM |
| CCN(CC)c1nnc(N[C@H](C)c2cccc(C#N)c2C)c2cn(C3CC3)c(=O)cc12 [Example 40, (R)-3-(1-((6-cyclopropyl-1-(diethylamino)-7-oxo-6,7-dihydropyrido[3,4-d]pyridazin-4-yl)amino)ethyl)-2-methylbenzonitrile] | 32.5 nM |
| C[C@@H](Nc1nnc(N2CC3C(C2)C3(C)C)c2cc(=O)n(C3(C)CC3)cc12)c1cccc(C(F)F)c1F (stereo partly drawn) [Example 189, 4-(((R)-1-(3-(difluoromethyl)-2-fluorophenyl)ethyl)amino)-1-(6,6-dimethyl-3-azabicyclo[3.1.0]hexan-3-yl)-6-(1-methylcyclopropyl) pyrido[3,4-d]pyridazin-7(6H)-one] | 4.3 nM |
| C[C@@H](Nc1nnc(N2CCCC2)c2cc(=O)n(C3CC3)cc12)c1cccc(C(F)F)c1F [Example 4, (R)-6-cyclopropyl-4-((1-(3-(difluoromethyl)-2-fluorophenyl)ethyl)amino)-1-(pyrrolidin-1-yl) pyrido[3,4-d]pyridazin-7(6H)-one] | 4.9 nM |
| C[C@@H](Nc1nnc(NC2CCN(C)C2)c2cc(=O)n(C3(C)CC3)cc12)c1cccc(C(F)F)c1F (stereo partly drawn) [Example 126, 4-(((R)-1-(3-(difluoromethyl)-2-fluorophenyl)ethyl)amino)-6-(1-methylcyclopropyl)-1-((1-methylpyrrolidin-3-yl)amino)pyrido[3,4 d]pyridazin-7(6H)-one] | 9.4 nM |
| CC(C)N1CCN(c2nnc(N[C@H](C)c3cccc(C(F)(F)F)c3F)c3cn(C4(C)CC4)c(=O)cc23)CC1 [Example 169, (R)-4-((1-(2-fluoro-3-(trifluoromethyl)phenyl)ethyl)amino)-1-(4-isopropylpiperazin-1-yl)-6-(1-methylcyclopropyl) pyrido[3,4-d]pyridazin-7(6H)-one] | 4.7 nM |
| Cc1c(C#N)cccc1[C@@H](C)Nc1nnc(N2CCC(F)(F)C2)c2cc(=O)n(C3(C)CC3)cc12 [Example 69, (R)-3-(1-((1-(3,3-difluoropyrrolidin-1-yl)-6-(1-methylcyclopropyl)-7-oxo-6,7-dihydropyrido[3,4-d]pyridazin-4-yl)amino)ethyl)-2-methylbenzonitrile] | 34.2 nM |
| Cc1cc(N)cc([C@@H](C)Nc2nnc(N3CCN(C4CC4)CC3)c3cc(=O)n(C4CC4)cc23)c1F [Example 143, (R)-4-((1-(5-amino-2-fluoro-3-methylphenyl)ethyl)amino)-6-cyclopropyl-1-(4-cyclopropylpiperazin-1-yl)pyrido[3,4-d]pyridazin-7(6H)-one] | 11.5 nM |
| C[C@@H](Nc1nnc(N2CCN(C3CC3)CC2)c2cc(=O)n(C3(C)CC3)cc12)c1cccc(C(F)(F)F)c1 [Example 181, (R)-1-(4-cyclopropylpiperazin-1-yl)-6-(1-methylcyclopropyl)-4-((1-(3-(trifluoromethyl)phenyl)ethyl)amino)pyr ido[3,4-d]pyridazin-7(6H)-one formate] | 7.8 nM |
| C[C@@H](Nc1nnc(-n2cncn2)c2cc(=O)n(C3CC3)cc12)c1cccc(C(F)F)c1F [Example 1, (R)-6-cyclopropyl-4-((1-(3-(difluoromethyl)-2-fluorophenyl)ethyl)amino)-1-(1H-1,2,4-triazol-1-yl) pyrido[3,4-d]pyridazin-7(6H)-one] | 13.5 nM |
| C[C@@H](Nc1nnc(NC2CCN(C)CC2)c2cc(=O)n(C3(C)CC3)cc12)c1cccc(C(F)F)c1F [Example 123, (R)-4-((1-(3-(difluoromethyl)-2-fluorophenyl)ethyl)amino)-6-(1-methylcyclopropyl)-1-((1-methylpiperidin-4-yl)amino)pyrido[3,4-d]pyridazin-7(6H)-one formate] | 3.8 nM |
| Cc1c([C@@H](C)Nc2nnc(N3CC4CC4C3)c3cc(=O)n(C4CC4)cc23)cccc1C(F)(F)F (stereo partly drawn) [Example 56, 1-(3-azabicyclo[3.1.0]hexan-3-yl)-6-cyclopropyl-4-(((R)-1-(2-methyl-3-(trifluoromethyl)phenyl)ethyl)amino)pyr ido[3,4-d]pyridazin-7(6H)-one] | 10.6 nM |
| Cc1c(C#N)cccc1[C@@H](C)Nc1nnc(N2CCC(F)(F)C2)c2cc(=O)n(C3CC3)cc12 [Example 42, (R)-3-(1-((6-cyclopropyl-1-(3,3-difluoropyrrolidin-1-yl)-7-oxo-6,7-dihydropyrido[3,4-d]pyridazin-4-yl)amino)ethyl)-2-methylbenzonitrile] | 51.3 nM |
| C[C@@H](Nc1nnc(N2CCN(C3CCCC3)CC2)c2cc(=O)n(C)cc12)c1cccc(C(F)F)c1F [Example 146, (R)-1-(4-cyclopentylpiperazin-1-yl)-4-((1-(3-(difluoromethyl)-2-fluorophenyl)ethyl)amino)-6-methylpyrido[3,4-d]pyridazin-7(6H)-one] | 12.5 nM |
| C[C@@H](Nc1nnc(N2CCN(C3CCCC3)CC2)c2cc(=O)n(N3CC4CCCC4C3)cc12)c1cccc(C(F)F)c1F (stereo partly drawn) [Example 140, 4-(((R)-1-(3-(difluoromethyl)-2-fluorophenyl)ethyl)amino)-6-(hexahydrocyclopenta[c]pyrrol-2(1H)-yl)-1-(4-cyclopentylpiperazin-1-yl)-pyrido[3,4-d]pyridazin-7(6H)-one] | 8.5 nM |
